“And” between values parts separate entries of the source, which are not always exact repeats. Equal values may be shown once. Read-outs that look alike come from different tables or passages of the source.
Columns and labels:
[1] = tested on: WI‐26 VA4 cells stably expressing EV (empty vector); settings: human, 72 h
[2] = tested on: WI‐26 VA4 cells
[3] = in vitro; settings: human, Cytotoxicity
[4] = set-up: method as in earlier work; settings: healthy adults; ref ANZCTR ACTRN12619001239156; ClinicalTrials.gov NCT04767815, NCT04888715, NCT04888728; cited from earlier work
[5] = tested on: C57BL/6 mice; experiment: Bleomycin‐induced lung fibrosis, preventive model; assay type: in vivo; settings: 3 weeks
Procedure: In a preventive model of bleomycin‐induced lung fibrosis, all experiments were conducted following the international guidelines on the ethical use of experimental animals and approved by the Institutional Animal Care and Use Committee of Aragen Bioscience (17‐0331‐M‐1). C57BL/6 mice (6–7‐week‐old, male, obtained from Simonsen Laboratories) were randomized into groups (n = 10 for each group) such that mean body weights were similar for the different groups. Oral administration of the compounds (vehicle, DWN12088, and pirfenidone) was started a day before oropharyngeal administration of 70 μl bleomycin (2 units/kg). DWN12088 (3, 10, 30 mg/kg) was treated once a day while 100 mg/kg pirfenidone was treated twice a day (200 mg/kg/day) for 3 weeks, and then the outcome was analyzed.

[6] = Pharmacokinetic study (plasma, LC-MS/MS); assay type: in vivo, C57BL/6 male mice; settings: 3, 10 and 30 mg/kg, single dose, intravenous and oral
Procedure: All experiments were performed according to the guidelines on the Institutional Animal Care and Use Committee of QuBEST BIO (QBIACUC‐A21112). Seven‐week‐old C57BL/6 male mice were purchased from Samtako (Osan, South Korea) and fed with regular chow and water ad libitum for 1 week before the experiments. Nine C57BL/6 mice in each group received three single ascending doses (3, 10, and 30 mg/kg) of DWN12088 formulated in normal saline intravenously and orally in fasted conditions. Post‐dosing serial blood samples were obtained using eye bleeding into heparinized capillary tubes with composite sampling (three mice per time point) at predetermined time points. The plasma was separated from the whole blood by centrifugation at 15,000 g for 2 min at 4°C, and then the proteins were precipitated using acetonitrile containing a deuterated‐labeled DWN12088 as an internal standard (IS).
The amount of DWN12088 in mouse plasma was measured by the AB Sciex ExionLC HPLC system connected to an AB Sciex 6500+ Qtrap mass spectrometer equipped with an electrospray ionization (ESI) source (AB Sciex LLC, Framingham, MA, USA). […] The gradient elution program was set as follows: 0–1 min, 10% B; 1.0–1.5 min, 10–95% B; 1.5–3.6 min, 95% B; 4.0–6.0 min, 10% B. Multiple reaction monitoring (MRM) was selected for the quantification of DWN12088 and IS in positive ion mode. […]

[7] = Cytotoxicity assay in cells stably expressing PARS1 mutant; settings: human; for activity at 72 h, 3 µM: 3000 nM; for activity at 72 h, 30 µM: 30000 nM; for activity at 72 h, 100 µM: 100000 nM
[8] = CellTiter‐Glo assay, screen of HF derivatives; assay type: cell-based; settings: human, NHLF cells
Procedure: After 24 h, the cells were incubated with various concentrations of compounds for 48 h. The level of ATP as a measure of cell viability was determined using a CellTiter‐Glo® luminescent cell viability assay kit (Promega, G7571) following the manufacturer's instructions.

[9] = tested on: WI‐26 VA4 cells stably expressing EV (empty vector); experiment: Cytotoxicity assay in cells stably expressing EV; settings: WI-26 VA4 EV
[10] = Cytotoxicity assay in cells stably expressing EV; settings: human; for activity at 72 h, 100 µM: 100000 nM; for activity at 72 h, 300 µM: 300000 nM
[11] = % of control (single replicates, Experiment #1-#4)
[12] = Cytotoxicity, % of control (single replicates, Experiment #1-#4), WI-26 VA4 Flag-PARS1 FA/EA/RL
[13] = Cytotoxicity, % of control, average, WI-26 VA4 Flag-PARS1 FA/EA/RL
[14] = Cytotoxicity, % of control (single replicates, Experiment #1-#4), WI-26 VA4 EV
[15] = Cytotoxicity, % of control, average, WI-26 VA4 EV

O=C(CC1NCCCC1O)Cn1cnc2cc(Br)c(Cl)cc2c1=O (stereo not shown) [HF, Halofuginone, reference compound]
Cytotoxicity HillSlope (best-fit value) [1]: -0.8001
Cytotoxicity LogIC50 (best-fit value) [1]: 1.811
TI (CC50/IC50 for collagen level) [2]: 3.46
activity at 72 h, 0.001 µM [3, 11]: 107%
activity at 72 h, 0.01 µM [3, 11]: 96.3%
activity at 72 h, 0.03 µM [3, 11]: 71.4%
activity at 72 h, 0.3 µM [3, 11]: 34.8%
activity at 72 h, 0.001 µM ([3]; % of control, average): 106%
activity at 72 h, 0.003 µM ([3]; % of control, average): 109%
activity at 72 h, 0.03 µM ([3]; % of control, average): 76.1%
activity at 72 h, 0.1 µM ([3]; % of control, average): 41.8%
activity at 72 h, 1 µM ([3]; % of control, average): 20%

O[C@H]1CCCN[C@@H]1CCCn1cnc2c(Cl)c(Cl)ccc21 [DWN12088]
safety in phase 1 studies [4]: validated its safety in phase 1 studies
fibrotic properties (modified Ashcroft score, lung weight, collagen content in BALF) ([5]; 10 mg/kg once a day): alleviated fibrotic properties
fibrotic properties (modified Ashcroft score, lung weight, collagen content in BALF) ([5]; 30 mg/kg once a day): alleviated fibrotic properties
plasma concentrations [6]: higher at 30 mg/kg
CC50 at 72 h [7]: 11.8 µM
IC50 at 72 h [7]: 11.8 µM
activity at 72 h, 3 µM [7, 12]: 85.2%
activity at 72 h, 30 µM [7, 12]: 25.3%
activity at 72 h, 100 µM [7, 12]: 22.8%
activity at 72 h, 0.01 µM ([7]; Cytotoxicity, % of control, average, WI-26 VA4 Flag-PARS1 FA/EA/RL, 10 nM): 110%
activity at 72 h, 0.03 µM ([7]; Cytotoxicity, % of control, average, WI-26 VA4 Flag-PARS1 FA/EA/RL, 30 nM): 107%
activity at 72 h, 0.1 µM ([7]; Cytotoxicity, % of control, average, WI-26 VA4 Flag-PARS1 FA/EA/RL, 100 nM): 110%
activity at 72 h, 0.3 µM ([7]; Cytotoxicity, % of control, average, WI-26 VA4 Flag-PARS1 FA/EA/RL, 300 nM): 107%
activity at 72 h, 1 µM ([7]; Cytotoxicity, % of control, average, WI-26 VA4 Flag-PARS1 FA/EA/RL, 1000 nM): 111%
activity at 72 h, 3 µM [7, 13]: 81.7%
activity at 72 h, 10 µM ([7]; Cytotoxicity, % of control, average, WI-26 VA4 Flag-PARS1 FA/EA/RL, 10000 nM): 68.8%
activity at 72 h, 30 µM [7, 13]: 19.5%
activity at 72 h, 100 µM [7, 13]: 20.1%
activity at 72 h, 300 µM ([7]; Cytotoxicity, % of control, average, WI-26 VA4 Flag-PARS1 FA/EA/RL, 300000 nM): 1.1%
activity at 72 h, 1000 µM ([7]; Cytotoxicity, % of control, average, WI-26 VA4 Flag-PARS1 FA/EA/RL, 1000000 nM): 0%
CC50 at 48 h [8]: > 100 µM
Cytotoxicity, % of control (single replicates, Experiment #1-#4) ([9]; 10 nM, 0.01 µM): 181.59 % of control and 174.53 % of control and 155.63 % of control and 131.53 % of control and 90.90 % of control and 98.37 % of control and 100.27 % of control and 114.43 % of control
Cytotoxicity, % of control (single replicates, Experiment #1-#4) ([9]; 30 nM, 0.03 µM): 144.67 % of control and 129.26 % of control and 139.92 % of control and 145.06 % of control and 96.12 % of control and 96.09 % of control and 105.17 % of control and 102.77 % of control
Cytotoxicity, % of control (single replicates, Experiment #1-#4) ([9]; 100 nM, 0.1 µM): 147.51 % of control and 118.70 % of control and 139.92 % of control and 137.75 % of control and 115.49 % of control and 112.19 % of control and 121.53 % of control and 122.89 % of control
Cytotoxicity, % of control (single replicates, Experiment #1-#4) ([9]; 300 nM, 0.3 µM): 145.14 % of control and 129.72 % of control and 157.05 % of control and 115.90 % of control and 103.62 % of control and 109.27 % of control and 123.14 % of control and 114.81 % of control
Cytotoxicity, % of control (single replicates, Experiment #1-#4) ([9]; 1000 nM, 1 µM): 147.27 % of control and 102.27 % of control and 132.28 % of control and 145.77 % of control and 98.60 % of control and 107.79 % of control and 107.19 % of control and 105.61 % of control
Cytotoxicity, % of control (single replicates, Experiment #1-#4) ([9]; 3000 nM, 3 µM): 108.37 % of control and 94.06 % of control and 109.81 % of control and 125.38 % of control and 98.33 % of control and 90.23 % of control and 106.43 % of control and 103.83 % of control
Cytotoxicity, % of control (single replicates, Experiment #1-#4) ([9]; 10000 nM, 10 µM): 112.55 % of control and 107.77 % of control and 118.32 % of control and 138.37 % of control and 93.86 % of control and 92.69 % of control and 99.78 % of control and 101.69 % of control
Cytotoxicity, % of control (single replicates, Experiment #1-#4) ([9]; 30000 nM, 30 µM): 48.06 % of control and 41.00 % of control and 64.15 % of control and 50.51 % of control and 27.36 % of control and 27.48 % of control and 37.20 % of control and 42.21 % of control
Cytotoxicity, % of control (single replicates, Experiment #1-#4) ([9]; 100000 nM, 100 µM): 28.49 % of control and 29.03 % of control and 30.62 % of control and 22.10 % of control and 18.35 % of control and 21.38 % of control and 22.01 % of control
Cytotoxicity, % of control (single replicates, Experiment #1-#4) ([9]; 300000 nM, 300 µM): 1.70 % of control and 1.82 % of control and 1.26 % of control and 1.75 % of control and 1.60 % of control and 1.89 % of control and 2.00 % of control
Cytotoxicity, % of control (single replicates, Experiment #1-#4) ([9]; 1000000 nM, 1000 µM): 0.17 % of control and -0.17 % of control and 0.30 % of control and -0.30 % of control (2×) and -0.44 % of control (2×) and -0.63 % of control
Cytotoxicity HillSlope (best-fit value) ([9]; log(inhibitor) vs. response, variable slope (four parameters)): -1.361
Cytotoxicity LogIC50 (best-fit value) ([9]; log(inhibitor) vs. response, variable slope (four parameters), concentration in nM): 4.38
CC50 at 72 h [10]: 24 µM
IC50 at 72 h [10]: 24 µM
activity at 72 h, 100 µM [10, 14]: 29.1%
activity at 72 h, 300 µM [10, 14]: 2.25%
activity at 72 h, 0.01 µM ([10]; Cytotoxicity, % of control, average, WI-26 VA4 EV, 10 nM): 131%
activity at 72 h, 0.03 µM ([10]; Cytotoxicity, % of control, average, WI-26 VA4 EV, 30 nM): 120%
activity at 72 h, 0.1 µM ([10]; Cytotoxicity, % of control, average, WI-26 VA4 EV, 100 nM): 127%
activity at 72 h, 0.3 µM ([10]; Cytotoxicity, % of control, average, WI-26 VA4 EV, 300 nM): 125%
activity at 72 h, 1 µM ([10]; Cytotoxicity, % of control, average, WI-26 VA4 EV, 1000 nM): 118%
activity at 72 h, 3 µM ([10]; Cytotoxicity, % of control, average, WI-26 VA4 EV, 3000 nM): 105%
activity at 72 h, 10 µM ([10]; Cytotoxicity, % of control, average, WI-26 VA4 EV, 10000 nM): 108%
activity at 72 h, 30 µM ([10]; Cytotoxicity, % of control, average, WI-26 VA4 EV, 30000 nM): 42.2%
activity at 72 h, 100 µM [10, 15]: 25.1%
activity at 72 h, 300 µM [10, 15]: 1.78%
activity at 72 h, 1000 µM ([10]; Cytotoxicity, % of control, average, WI-26 VA4 EV, 1000000 nM): -0.23%

— paper PMC10331583, “Control of fibrosis with enhanced safety via asymmetric inhibition of prolyl‐tRNA synthetase 1” (EMBO Molecular Medicine, 2023)
